PMC12006171, “Marsupial cathelicidins: characterization, antimicrobial activity and evolution in this unique mammalian lineage” (Frontiers in Immunology, 2025)
Where a SMILES comes first, the peptide text is derived from it.

Columns and labels:
[1] = test system: Streptococcus agalactiae Clinical isolate - animal; assay: microbe, parasite or virus in culture; format: cell-based; details: clinical isolate - animal; read-out: MIC S. agalactiae
Method in brief: (§1)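 Broth microdilution per CLSI M07-A/M26A; cathelicidin peptides tested at final 64-0.125μg/mL, inoculum 5 x 10^5 CFU/mL, 35°C for 20–24 hours. Bacteria in MHB (±10% lysed horse blood, ±Ca/Mg), yeasts in RPMI-1640 MOPS. MIC = lowest concentration preventing visible growth.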

[2] = test system: Streptococcus agalactiae ATCC 12386; assay: microbe, parasite or virus in culture; format: cell-based; details: ATCC 12386; read-out: MIC S. agalactiae ATCC
Method in brief: as §1

[3] = test system: Streptococcus pneumoniae ATCC 49619; assay: microbe, parasite or virus in culture; format: cell-based; details: ATCC 49619; read-out: MIC S. pneumoniae ATCC
Method in brief: as §1

[4] = test system: Pseudomonas aeruginosa clinical isolate - animal; assay: microbe, parasite or virus in culture; format: cell-based; details: clinical isolate - animal; read-out: MIC P. aeruginosa
Method in brief: (§2)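 Broth microdilution following CLSI M07-A/M26A, using peptides at 64–0.125 μg/mL final in MHB, with or without 10% lysed horse blood and with or without Ca/Mg cations (MH II B). Inoculum 5 x 10^5 CFU/mL, incubated 20–24 h at 35 °C; MIC is lowest concentration preventing visible growth, MBC by colony counts versus starting inoculum.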

[5] = test system: Escherichia coli clinical isolate - animal; assay: microbe, parasite or virus in culture; format: cell-based; details: clinical isolate - animal
Method in brief: as §2

[6] = test system: Staphylococcus aureus clinical isolate - animal; assay: microbe, parasite or virus in culture; format: cell-based; details: clinical isolate - animal; read-out: MIC S. aureus
Method in brief: as §2

[7] = test system: Staphylococcus aureus ATCC 29213; assay: microbe, parasite or virus in culture; format: cell-based; details: ATCC 29213; read-out: MIC S. aureus ATCC
Method in brief: as §2

[8] = test system: Escherichia coli ATCC 25922; assay: microbe, parasite or virus in culture; format: cell-based; details: ATCC 25922
Method in brief: as §2

[9] = test system: Pseudomonas aeruginosa ATCC 27853; assay: microbe, parasite or virus in culture; format: cell-based; details: ATCC 27853; read-out: MIC P. aeruginosa ATCC
Method in brief: as §2

E. coli ATCC 25922 = assay: Killing kinetics (time kill assay); format: cell-based, Escherichia coli; details: MHB, 35°C, sampled 1-24 hours, n = 2
Method: The killing kinetics assay was conducted using mid-logarithmic phase cultures of E. coli ATCC 25922 and S. aureus ATCC 29213 in MHB. Cultures were adjusted to a 0.5 McFarland standard, diluted in MHB, and then 100µL was added to each culture tube containing 10mL pre-warmed MHB to give a final inoculum concentration of 5 x 10^5 CFU/mL. A sterility control of 100uL MHB, growth control (no cathelicidin), and vehicle control (DMSO) were also included. Furthermore, 10uL was immediately removed from the growth control tube, diluted 1/1000 in saline and 100µL plated onto MHA in duplicate to confirm inoculum density. To establish colony counts from 0 hours of cathelicidin treatment, 200µL was removed from each culture tube and serially diluted ten-fold in saline from 10^0 to […] in a total volume of 200µL. Then, 10µL of each dilution was spotted onto MHA in duplicate, which were incubated at 35°C for 24 hours.
All culture tubes were then incubated at 35°C static. At 1, 2, 4, 6, 8, 10, 12, and 24 hours post-cathelicidin treatment, 200µL was removed from each culture tube for dilution and plated on MHA as described above. […] Counts of duplicates were averaged, and the log10 CFU/mL graphed against time. This was used as input for one-way ANOVA (p < 0.05) followed by Dunnett’s post hoc test.

MIC [1]: >13.2 µM
MIC [2]: >13.2 µM
MIC [3]: >13.2 µM
MIC [4]: >13.2 µM
MIC E. coli [5]: 6.6 (6.6)^6.6 µM
MIC in the presence of cations E. coli [5]: 6.6 (6.6)^6.6 µM
MIC [6]: >13.2 µM
MIC [7]: >13.2 µM
MIC E. coli ATCC [8]: 1.6 (1.6)^1.6 µM
MIC in the presence of cations E. coli ATCC [8]: 1.6 (1.6)^1.6 µM
MIC [9]: >13.2 µM
SMILES: CC[C@H](C)[C@H](NC(=O)[C@H](CC(=O)O)NC(=O)[C@H](CC(=O)O)NC(=O)CNC(=O)[C@H](CC(C)C)NC(=O)[C@H](CCCCN)NC(=O)[C@@H](NC(=O)[C@H](C)NC(=O)[C@H](CCCCN)NC(=O)[C@H](CCCNC(=N)N)NC(=O)[C@H](CCCCN)NC(=O)[C@H](CC(C)C)NC(=O)[C@H](CO)NC(=O)[C@H](CCC(=O)O)NC(=O)[C@H](Cc1c[nH]c2ccccc12)NC(=O)[C@H](CC(C)C)NC(=O)CNC(=O)[C@H](CCCNC(=N)N)NC(=O)[C@@H](N)CCCCN)[C@@H](C)O)C(=O)N[C@@H](CCCNC(=N)N)C(=O)N[C@@H](CC(N)=O)C(=O)N[C@H](C(=O)N[C@@H](CC(C)C)C(=O)N[C@@H](CCCNC(=N)N)C(=O)N[C@@H](CC(N)=O)C(=O)N[C@@H](Cc1ccccc1)C(=O)N[C@@H](CCCCN)C(=O)N[C@H](C(=O)N[C@@H](CCCCN)C(=O)N[C@H](C(=O)N1CCC[C@H]1C(=O)N[C@H](C(=O)N1CCC[C@H]1C(=O)N[C@@H](CCCNC(=N)N)C(=O)N[C@@H](CCC(N)=O)C(=O)N[C@@H](Cc1c[nH]c2ccccc12)C(=O)N1CCC[C@H]1C(=O)N[C@H](C(=O)N[C@@H](CCCNC(=N)N)C(=O)N[C@H](C(=O)O)C(C)C)[C@@H](C)CC)C(C)C)C(C)C)[C@@H](C)CC)[C@@H](C)O [MaruCath4] (H-KRGLWESLKRKATKLGDDIRNTLRNFKIKVPVPRQWPIRV-OH; N-terminus and C-terminus assumed)
MBC E. coli [5]: 6.6 (6.6)^6.6 µM
Number of hours to cause a significant reduction in log CFU/mL of E. coli ATCC (p < 0.05) (E. coli ATCC 25922; 2x MIC): 4 hours
Number of hours to cause a significant reduction in log CFU/mL of E. coli ATCC (p < 0.05) (E. coli ATCC 25922; MIC): 4 hours
